From paper PMC2266763, “Dimerization of the transmembrane domain of amyloid precursor proteins and familial Alzheimer's disease mutants” (BMC Neuroscience, 2008)
Entries after “also recorded” stand apart in the source; their conditions may differ. Ends that are not written are not given here. Lys‑tag = not defined here

B1: wild-type APP-TM peptide (peptide)
peptide: GAIIGLMVGGVVIATVIVITLVML-{Lys‑tag}
modifications: not fully specified (N-terminus); reading uncertain
notes: amyloid precursor protein (APP), human, residues 700 to 723, contain the TM segment; Two versions were synthesised: Lys-tag-W-(700-723)-Lys-tag (FRET donor) and Lys-tag-E(EDANS)-(700-723)-Lys-tag (FRET acceptor); also called wild-type APP transmembrane domain peptide; source: synthetic peptide (solid-phase synthesis, purified by reverse phase C4-HPLC); not shown: oligo-lysine tag (Lys-tag), …
B2: V717F APP-TM peptide (peptide)
peptide: GAIIGLMVGGVVIATVIFITLVML-{Lys‑tag}
modifications: not fully specified (N-terminus); reading uncertain
notes: amyloid precursor protein (APP), human, residues 700 to 723 with the familial Alzheimer's disease mutation V717F; Two versions (Trp donor, Glu-EDANS acceptor) as for m1; Said to be soluble only in the presence of SDS; source: synthetic peptide (solid-phase synthesis, purified by reverse phase C4-HPLC); not shown: oligo-lysine tag (Lys-tag), N-terminal, kept; Trp (donor version) or Glu-EDANS …
B3: V717G APP-TM peptide (peptide)
peptide: GAIIGLMVGGVVIATVIGITLVML-{Lys‑tag}
modifications: not fully specified (N-terminus); reading uncertain
notes: amyloid precursor protein (APP), human, residues 700 to 723 with the familial Alzheimer's disease mutation V717G; Two versions (Trp donor, Glu-EDANS acceptor) as for m1; source: synthetic peptide (solid-phase synthesis, purified by reverse phase C4-HPLC); not shown: oligo-lysine tag (Lys-tag), N-terminal, kept; Trp (donor version) or Glu-EDANS (acceptor version), N-terminal, kept; oligo-lysine …

What was measured:
[1] = system: APP-TM dimer (self-association); test: SDS-PAGE oligomeric state; type: binding, human; details: 20 mM SDS; for Oligomeric state by SDS-PAGE: 40 mM Tris, 8 mM Acetate (pH 7.0), 5% glycerol, 0 – 25 μM peptide, boiled 5 minutes; for Oligomeric state by SDS-PAGE, concentration range: at different concentrations (0 – 25 μM peptide), pH 7.0
Procedure: Samples contained 20 mM SDS, 40 mM Tris, 8 mM Acetate (pH 7.0), 5% glycerol, and 0 – 25 μM peptide. They were boiled for 5 minutes and subjected to SDS-PAGE using precast 4–12% Nupage gels (Invitrogen) and a standard running buffer. SeeBlue®Plus2 molecular weight markers from Invitrogen were used as standards.

[2] = system: APP-TM dimer (self-association); test: FRET dimer dissociation, APP-TM peptides in SDS micelles; type: binding, human; details: for Kd: concentration dependence of FRET (Trp donor / EDANS acceptor, equimolar), 20 mM SDS, 40 mM Tris, 8 mM Acetate (pH 7.0), 0 – 90 μM peptide, overnight, room temperature, average error 3.6%, read-out: Apparent dimer dissociation constant
Procedure: (§1) Mixed peptide-SDS micelles were prepared by the addition of concentrated SDS to peptide solutions, such that the final concentrations were 20 mM SDS, 40 mM Tris, 8 mM Acetate (pH 7.0) and 0 – 90 μM peptide. The samples were sonicated and incubated overnight in the dark at room temperature before making fluorescence measurements.
(§2) Fluorescence measurements were made at room temperature using a PTI QM-1 fluorescence spectrophotometer. A quartz cuvette with a 2 mm excitation pathlength and a 1 cm emission pathlength was used. The excitation wavelength was 285 nm and the bandpass was 4 nm. We obtained a quantitative measure of the degree of peptide oligomerization by integrating the EDANS emission signal from 472–496 nm and dividing this value with the integrated Trp emission signal from 350–375 nm. This ratio of acceptor fluorescence to donor fluorescence is denoted either as Acceptor/Donor ratio or A/D ratio and can be used to compare peptide oligomerization at varying concentrations.
The apparent dissociation constants were determined using an equation derived from first principles of monomer-dimer equilibrium, where Kd = [A]^2/[A2]. The fluorescence acceptor-donor ratio was plotted against total peptide concentration and fit to the following equation:
[AT]=Kd(Fobs−Fmin/Fmax−Fmin)/2(1−Fobs−Fmin/Fmax−Fmin)^2
Where AT = total APP-TM peptide concentration, F = A/D ratio, fraction dimer = (Fobs-Fmin)/Fmax-Fmin), and % dimer = 100% (fraction dimer). The goodness-of-fit to the model were assessed using the chi-squared test, nonlinear least squares correlation, and examination of residuals.

[3] = Solubility of APP-TM peptides; type: physicochemical
[4] = system: wild-type APP-TM peptide; test: FRET hetero-oligomerization of wild-type and mutant APP-TM peptides; type: binding, human; details: Trp-labeled wild-type with EDANS-labeled V717G, constant 1:1 ratio, 20 mM SDS
Procedure: as §1, §2

[5] = system: Aβ40 and Aβ42 production; test: Aβ ELISA immunoassay, HEK293 cells expressing Swedish mutant APP and γ-secretase components; type: cell-based, human; details: for Effect on levels of Aβ (Aβ40 and Aβ42): overnight incubation, 0, 20 or 100 μM peptide, conditioned media; for Effect on levels of Aβ (Aβ40 and Aβ42) / Effect on Aβ42/40 ratio: relative to control samples
Procedure: Stably transfected HEK293 cells overexpressing the Swedish double mutant (K670N/M671L) of APP751, presenilin 1, nicastrin, PEN-2 and APH-1 were grown to confluency in DMEM media containing 10% fetal bovine serum. The cells were grown for another 48 hours with the media changed twice at equivalent time intervals. Cells were then incubated overnight in fresh media containing 0, 20 or 100 μM APP-TM peptides. The media was collected and subjected to an immunoassay to determine the Aβ42 and Aβ40 concentrations. The ELISA BioSource immunoassay human β-amyloid 1–40/1–42 colorimetric kit (catalogue number KHB3482/KHB3481) was used and the standard protocol was followed. This sandwich ELISA technique makes use of an immobilized Aβ antibody that binds both Aβ40 and Aβ42 at an N-terminal epitope. The bound Aβ40 and Aβ42 are then detected using a C-terminal antibody specific for either Aβ40 or Aβ42. […] Therefore, this assay is ideally suited to detect any disturbances in the normal processing of endogeneuous full length APP in the presence of APP-TM peptides.

[6] = system: HEK293 cells stably overexpressing Swedish-mutant APP751 and γ-secretase components; test: Sulforhodamine B (SRB) cytotoxicity assay; type: cell-based; details: SRB assay, 0, 10, 20, and 100 μM peptide, overnight
Procedure: Stably transfected HEK293 cells overexpressing Swedish-mutant APP751 and γ-secretase components were plated at 15,000 cells/well in DMEM media containing 10% fetal bovine serum. The cells were grown for another 48 hours with the media changed twice at equivalent time intervals. Cells were then incubated overnight in fresh media containing 0, 10, 20, and 100 μM APP-TM peptides, and the SRB cytotoxicity assay was performed as previously described.

[7] = system: APP-TM oligomer (self-association); test: FRET of APP-TM peptides in DOPG phospholipid vesicles; type: binding, human; details: 1:20 peptide:DOPG, 50 mM Tris, 10 mM NaCl (pH 7.0), room temperature, excitation 285 nm
Procedure: DOPG vesicles with incorporated peptides were prepared via sonication of dried lipid films in the presence of peptide solution at a molar ratio of 1 mole of peptide: 20 moles of DOPG as previously described. The samples contained 50 mM Tris, 10 mM NaCl (pH 7.0) as the buffer. […] Purified peptide-incorporated vesicle fractions were used for fluorescence measurements.
as §2

[8] = target: T714I APP-TM peptide (human); test: FRET or BRET; apparent; dimer to monomers; concentration dependence of the A/D ratio in equimolar mixtures of donor- and acceptor-labelled peptide, 20 mM SDS, 40 mM Tris, 8 mM acetate (pH 7.0), 0 – 90 μM peptide, room temperature
[9] = target: the molecule itself; test: SDS-PAGE of the oligomeric state; 20 mM SDS, 40 mM Tris, 8 mM acetate (pH 7.0), 5% glycerol, 0 – 25 μM peptide, boiled 5 minutes, 4–12% Nupage gels
[10] = target: the molecule itself; test: FRET or BRET; apparent; dimer to monomers; concentration dependence of the A/D ratio in equimolar mixtures of donor- and acceptor-labelled peptide, 20 mM SDS, 40 mM Tris, 8 mM acetate (pH 7.0), 0 – 90 μM peptide, room temperature
[11] = target: V717F APP-TM peptide (human); test: as above
[12] = target: B1; test: FRET or BRET; mixed: Trp-labelled wild-type with equimolar Edans-labelled mutant peptide in 20 mM SDS; A/D ratio against total peptide concentration (V717G) and at 50 μM total peptide (all mutants); baseline A/D 0.24 for non-interacting peptides; details: both partners purified
[13] = 0, 20 or 100 μM peptide, overnight

## Lys-tag(W/EEDANS)GAIIGLMVGGVVIAIVIGITLVML Lys-tag [T714I, FAD mutant T714I APP-TM peptide with N- and C-terminal oligo-lysine tags]
[1]
  Oligomeric state by SDS-PAGE: predominantly monomeric
[2]; among wild-type and FAD mutants tested, SDS micelles
  Relative dimer stability: least stable dimer
[2]
  Kd: 395 µM
[3]
  Solubility: only soluble in the presence of SDS

## Lys-tag(W/EEDANS)GAIIGLMVGGVVIATVIFITLVML Lys-tag [V717F, FAD mutant V717F APP-TM peptide with N- and C-terminal oligo-lysine tags]
[1]
  Oligomeric state by SDS-PAGE: predominantly monomeric
[2]
  Kd: 125 µM
[3]
  Solubility: only soluble in the presence of SDS

## Lys-tag(W/EEDANS)GAIIGLMVGGVVIATVIGITLVML Lys-tag [V717G, FAD mutant V717G APP-TM peptide with N- and C-terminal oligo-lysine tags]
[1]
  Oligomeric state by SDS-PAGE: populated both monomer and dimer states
  Oligomeric state by SDS-PAGE, concentration range: formed monomer-dimer mixtures across the same concentration range
[4]
  Total peptide concentration at which A/D ratio shows signs of saturation (hetero-oligomerization): above 50 μM
[5]; [13]
  Concentration dependence of Aβ reduction: strong concentration dependence
  Inhibitory effect on Aβ42 versus Aβ40 production: greater inhibitory effect on Aβ42 production (Fig. 7B) than on Aβ40 production
  Suppression of Aβ production relative to wild-type peptide: greater than that of the wild-type peptide; also recorded: significantly greater inhibition of Aβ production than the wild-type peptide
  Effect on Aβ42/40 ratio: reduction in the Aβ42/40 ratio relative to control samples
[5]
  Effect on levels of Aβ (Aβ40 and Aβ42): drastic reduction in the levels of Aβ relative to control samples
[6]
  Cell survival / viability: neither peptide caused a reduction in cell survival

## Lys-tag(W/EEDANS)GAIIGLMVGGVVIATVIVITLVML Lys-tag [wild-type, APP-TM peptide, residues 700 to 723 of human APP, with N- and C-terminal oligo-lysine tags; Trp or Glu-EDANS labeled]
[1]
  Oligomeric state by SDS-PAGE: formed stable dimers
  Oligomeric state by SDS-PAGE, concentration range: predominantly dimeric under all concentrations tested
[7]
  FRET signature (donor quenching, acceptor sensitization) in phospholipid bilayers: Typical donor quenching and acceptor sensitization was observed
[5]; [13]
  Concentration dependence of Aβ reduction: strong concentration dependence
  Inhibitory effect on Aβ42 versus Aβ40 production: greater inhibitory effect on Aβ42 production (Fig. 7B) than on Aβ40 production
  Effect on Aβ42/40 ratio: reduction in the Aβ42/40 ratio relative to control samples
[5]
  Effect on levels of Aβ (Aβ40 and Aβ42): drastic reduction in the levels of Aβ relative to control samples
[6]
  Cell survival / viability: neither peptide caused a reduction in cell survival

## T714I APP-TM peptide
[8]
  Kd: 395 µM

## B1
[9]
  stoichiometry N: 2
[10]
  Kd: 10.3 µM

## B2
[11]
  Kd: 125 µM
[12]
  binding result: binds

## B3
[9]
  stoichiometry N: 2
[10]
  Kd: 20.4 µM
[12]
  binding result: binds
